Our source for the logP values is the OPERA property sets (Mansouri et al. 2018).

Peptide text beside a SMILES is read from it. * marks the point of attachment. NHtBu = CC(C)(C)N*

In the case of `NS(=O)(=O)c1ccccc1`, the logP (as a rule, a log measure of how a compound divides between an organic and an aqueous phase) was 0.31.

Molecule `Cc1cnccn1` displayed a log partition coefficient (logP) of 0.21.

Molecule `CCCNC` returned a logP of 0.84.

`CC(=O)NC(C)C(=O)NC(CC(=O)O)C(=O)NC(C)C(=O)NC(C)(C)C` (stereo not drawn) (Ac-Ala-Asp-Ala-NHtBu; configuration not given here) displayed a logP of -0.74.

As for `CC=Cc1c(OC)cc(Cc2cnc(N)nc2N)cc1OCC`, the logP was 2.65.

Take `O=[N+]([O-])c1cccnc1`: the logP is 0.6.

Take `CCCS(=O)(=O)CCC`: the logP was found to be 0.39.

The molecule `O=Cc1c[nH]c2ccccc12` gave a logP of 1.68.

As for `CC(C)(C)C(N)Cc1ccccc1` (centres undefined), the logP is 2.91.

For the molecule `CCN(CC)S(=O)(=O)c1ccc(OC)c(N)c1`, the logP was found to be 1.7.

`NC(=O)c1ccc2[nH]ccc2c1` came in with a logP of 0.87.

Take `Ic1cn[nH]c1`: the logP stood at 1.7.

`COc1cc(NS(=O)(=O)c2ccc(N)cc2)nc(C)n1` returned a log partition coefficient (logP) of 0.61.

For the molecule `CC[C@H](C)[C@H](NC(=O)[C@@H](NC(=O)[C@H](C)NC(C)=O)C(C)C)C(N)=O`, the logP was -0.2.

Turning to `Nc1ccc(C(=O)Oc2ccccc2F)c(O)c1`, the logP turned out to be 3.29.

In turn, `ON=Cc1ccc(Cl)cc1` returned a logP of 2.67.

`O=C(NC(CO)C(O)c1ccc(I)cc1)C(Cl)Cl` (centres undefined) returned a logP of 2.22.

With `CN(C)CCOC(=O)c1ccc([N+](=O)[O-])cc1`, the logP is 1.7.

As for `Cn1nnnc1SCC1=C(C(=O)O)N2C(=O)C(NC(=O)CSCC#N)C2SC1` (centres undefined), the logP was -0.62.

`CC(C)S[C@@H]1O[C@H](CO)[C@H](O)[C@H](O)[C@H]1O` had a logP of -1.26.

The molecule `CC(C(=O)O)c1ccc(-c2ccccc2)c(F)c1` (centres undefined) returned a logP of 4.16.

Take `CCOC(=O)C(C)NC(=O)CCCCSc1ncnc2nc[nH]c12` (centres undefined): the logP is 1.51.

On to `Nc1cnnc2ccccc12`, for which the logP came out at 1.04.

Consider `Oc1ccc(O)c(Cl)c1`, for which the logP came out at 1.4.

For `O=C(O)c1cc(O)cc(O)c1`, the logP is 0.86.

For `CC(CN(C)C)CN1c2ccccc2S(=O)(=O)c2ccccc21` (centres undefined), the logP stood at 2.51.

On to `COC(=O)NS(=O)(=O)c1ccc(N)cc1`, for which the logP was -0.27.

As to `CCOC(=O)c1ccc(O)cc1`, the logP turned out to be 2.47.

The molecule `COP(=S)(OC)Oc1ccc(S(=O)(=O)N(C)C)cc1` returned a logP of 2.23.

In the case of `O=C(O)c1cc([N+](=O)[O-])cc([N+](=O)[O-])c1`, the logP came out at 1.55.

`COc1cccc2c1C(=O)c1c(O)c3c(c(O)c1C2=O)CC(O)(C(C)O)CC3OC1CC(N2CCOCC2)C(O)C(C)O1` (centres undefined) returned a logP of 2.03.

In turn, `C=CC1(C)OC(=O)N(c2cc(Cl)cc(Cl)c2)C1=O` (centres undefined) displayed a logP of 3.1.

`Nc1ccc(S(=O)(=O)Nc2cccnc2Cl)cc1`: the logP was found to be 1.58.

Molecule `CC(C)N(N=O)C(C)C` showed a logP of 1.38.

With `CCC(C)(C)C`, the logP worked out at 3.82.

With `CCCCC[N+](=O)[O-]`, the logP is 2.01.

Molecule `O=C1CN=C(c2ccccc2)c2cc([N+](=O)[O-])ccc2N1` displayed a logP of 2.25.

Consider `CCOC(=O)C(=Cc1ccccc1)C(C)=O`, for which the logP amounted to 2.21.

As to `CCCC(C)(C)c1ccc(C2CCCC(O)C2)c(O)c1` (centres undefined), the logP was 4.82.

For the molecule `Cc1ccncc1`, the logP is 1.22.

As to `CCCCOc1c(OC)cc(CCN)cc1OC`, the logP is 2.32.

As to `CC1(C)O[C@@H]2C[C@H]3[C@@H]4CCC5=CC(=O)C=C[C@]5(C)[C@@]4(F)[C@@H](O)C[C@]3(C)[C@]2(C(=O)CO)O1`, the logP amounted to 2.53.

For the molecule `OCc1cccc(Cl)c1`, the logP was 1.94.

As for `c1ccc2[se]ccc2c1`, the logP is 3.19.

`CNC(=O)Oc1ccc(SC)c(C)c1` registered a logP of 2.47.

Regarding `C=C(Br)CC1(C(C)C)C(=O)NC(=O)N(C)C1=O` (centres undefined), the logP was 2.11.

Molecule `O=C1CCCCCCCN1` displayed a logP of 0.67.

Take `OCCCc1cccnc1`: the logP worked out at 0.6.

For `O=C(Nc1ncnc2c1ncn2[C@H]1C[C@H](O)[C@@H](CO)O1)c1ccccc1`, the logP was 0.22.
